# Laboratory results as given in patent publication US7541359B2, “N-heteroarylpiperazinyl ureas as modulators of fatty acid amide hydrolase” (Janssen Pharmaceutica N.V., priority 2005, dated 2009).
# Target: T1, Rat FAAH (Rattus norvegicus, UniProt P97612)
# T1 construct: expressed in transfected cells; host or cells: SK-N-MC cells, electroporated, G418-selected clones
# T1 sequence (P97612 1-579): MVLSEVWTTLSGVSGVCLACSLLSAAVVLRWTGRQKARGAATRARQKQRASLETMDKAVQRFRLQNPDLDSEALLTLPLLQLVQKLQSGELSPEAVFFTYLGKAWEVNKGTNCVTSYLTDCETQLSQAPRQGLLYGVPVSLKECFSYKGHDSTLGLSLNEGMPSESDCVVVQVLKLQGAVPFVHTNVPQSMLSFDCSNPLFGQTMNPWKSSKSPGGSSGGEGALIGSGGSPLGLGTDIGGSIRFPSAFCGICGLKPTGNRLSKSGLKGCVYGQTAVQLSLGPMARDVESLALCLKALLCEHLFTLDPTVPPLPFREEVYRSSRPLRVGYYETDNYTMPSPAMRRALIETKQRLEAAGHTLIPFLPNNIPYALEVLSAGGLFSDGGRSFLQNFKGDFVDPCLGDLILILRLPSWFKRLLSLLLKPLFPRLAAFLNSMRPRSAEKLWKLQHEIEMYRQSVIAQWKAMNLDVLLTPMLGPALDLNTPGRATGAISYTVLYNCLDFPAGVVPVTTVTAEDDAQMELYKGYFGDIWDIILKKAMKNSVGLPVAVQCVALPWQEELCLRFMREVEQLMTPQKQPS
# Assay: Assay Method 3: FAAH assay, homogenate of SK-N-MC cells transfected with rat FAAH
# Assay type: biochemical
# Details: rat FAAH transfected SK-N-MC cell homogenate; 3H-AEA tracer 80 nM; rt 1 h
# Protocol: Assay Method 3 A. Transfection of Cells with Rat FAAH
# A 10-cm tissue culture dish with a confluent monolayer of SK-N-MC cells was split 2 days (d) prior to transfection. Using sterile technique, the media was removed and the cells were detached from the dish by the addition of trypsin. One fifth of the cells were then placed onto a new 10-cm dish. Cells were grown in a 37° C. incubator with 5% CO2 in Minimal Essential Media Eagle with 10% Fetal Bovine Serum. After 2 d, cells were approximately 80% confluent. These cells were removed from the dish with trypsin and pelleted in a clinical centrifuge. The pellet was re-suspended in 400 μL complete media and transferred to an electroporation cuvette with a 0.4 cm gap between the electrodes. Supercoiled rat FMH cDNA (1 μg) was added to the cells and mixed. The voltage for the electroporation was set at 0.25 kV, and the capacitance was set at 960 μF. After electroporation, the cells were diluted into complete media (10 mL) and plated onto four 10-cm dishes. Because of the variability in the efficiency of electroporation, four different concentrations of cells were plated. […] After 10 d, dishes were analyzed for surviving colonies of cells. Dishes with well-isolated colonies were used. Cells from individual colonies were isolated and tested.
# The assay mixture consisted of 50 μL of the cell homogenate, 10 μL of the test compound, and 40 μL of anandamide [1-^3H-ethanolamine] (^3H-AEA, Perkin-Elmer, 10.3 Ci/mmol), which was added last, for a final tracer concentration of 80 nM. The reaction mixture was incubated at rt for 1 h. During the incubation, 96-well Multiscreen filter plates (catalog number MAFCNOB50: Millipore, Bedford, Mass., USA) were loaded with 25 μL of activated charcoal (Multiscreen column loader, catalog number MACL09625, Millipore) and washed once with 100 μL of MeOH. […] After the 1 h incubation, 60 μL of the reaction mixture were transferred to the charcoal plates, which were then assembled on top of the DYNEX plates using Centrifuge Alignment Frames (catalog number MACF09604, Millipore). The unbound labeled ethanolamine was centrifuged through to the bottom plate (5 min at 2000 rpm), which was preloaded with the scintillant, as described above. The plates were sealed and left at rt for 1 h before counting on a Hewlett Packard TopCount.
row,Structure (SMILES),IC50
1,"CC(C)c1ccccc1NC(=O)N1CCN(c2nc(-c3ccccc3)ns2)CC1 [Example 23, 4-(3-Phenyl-[1,2,4]thiadiazol-5-yl)-piperazine-1-carboxylic acid (2-isopropyl-phenyl)-amide]",> 10000 nM
2,"O=C(Nc1ccccc1F)N1CCN(c2nc(-c3ccccc3)ns2)CC1 [Example 21, 4-(3-Phenyl-[1,2,4]thiadiazol-5-yl)-piperazine-1-carboxylic acid (2-fluoro-phenyl)-amide]",6 nM
3,"O=C(Nc1ccccc1)N1CCN(c2nc(-c3cccc([N+](=O)[O-])c3)ns2)CC1 [Example 37, 4-[3-(3-Nitro-phenyl)-[1,2,4]thiadiazol-5-yl]-piperazine-1-carboxylic acid phenylamide]",> 10000 nM
4,"COC(=O)c1ccc(NC(=O)N2CCN(c3nc(-c4ccccc4)ns3)CC2)cc1 [Example 30, 4-{[4-(3-Phenyl-[1,2,4]thiadiazol-5-yl)-piperazine-1-carbonyl]-amino}-benzoic acid methyl ester]",> 10000 nM

# More lines, now with the values ahead:
row,IC50,Structure (SMILES)
1,250 nM,"Cc1ccc(-c2nsc(N3CCN(C(=O)Nc4ccccc4)CC3)n2)cc1 [Example 18, 4-(3-p-Tolyl-[1,2,4]thiadiazol-5-yl)-piperazine-1-carboxylic acid phenylamide]"
2,350 nM,"O=C(Nc1ccccc1)N1CCN(c2nc(-c3ccc(Cl)cc3)ns2)CC1 [Example 20, 4-[3-(4-Chloro-phenyl)-[1,2,4]thiadiazol-5-yl]-piperazine-1-carboxylic acid phenylamide]"
3,> 10000 nM,"CN(C)c1ccc(NC(=O)N2CCN(c3nc(-c4ccccc4)ns3)CC2)cc1 [Example 26, 4-(3-Phenyl-[1,2,4]thiadiazol-5-yl)-piperazine-1-carboxylic acid (4-dimethylamino-phenyl)-amide]"
4,490 nM,"COc1ccc(-c2nsc(N3CCN(C(=O)Nc4ccccc4)CC3)n2)cc1 [Example 19, 4-[3-(4-Methoxy-phenyl)-[1,2,4]thiadiazol-5-yl]-piperazine-1-carboxylic acid phenylamide]"
